For one experiment, the target named is T1, rh integrin α4β7 (Homo sapiens, UniProt P13612+P26010).
T1 construct: purchased R&D Systems 5397-A30
Nature of the experiment: α4β7-MAdCAM Competition ELISA. The experiment is classed as binding. The settings on record: Table 3-B, Potency (α4β7); range classes; read-out: α4β7 ELISA IC50. The protocol:
A nickel coated plate (Pierce #15442) was coated with rh integrin α4β7 (R&D Systems #5397-A30) at 800 ng/well and incubated at room temperature with shaking for 1 hr. The solution was then removed by shaking and blocked with assay buffer (50 mM Tris-HCl pH7.6, 150 mM NaCl, 1 mM MnCl2 or MgCl2, 0.05% Tween-20 and 0.5% BSA) at 250 ul/well. The plate was then incubated at room temperature for 1 hr. Each well was washed 3 times with wash buffer (50 mM Tris-HCl pH7.6, 100 mM NaCl, 1 mM MnCl2 or MgCl2, 0.05% Tween-20). To each well was added 25 ul of a serial dilution (3-fold dilutions in assay buffer) of peptide starting at 20 μM. 25 ul of recombinant human MAdCAM-1 (R&D Systems #6056-MC) was then added to each well at a fixed concentration 20 nM. The final starting peptide concentration was 10 μM, and the final MAdCAM-1 concentration was 10 nM. The plates were then incubated at room temperature for 1 hr to reach binding equilibrium. The wells were then washed three times with wash buffer. 50 ul of mouse anti-human IgG1-HRP (Invitrogen # A10648) diluted in 1:2000 in assay buffer was then added to each well. The wells were incubated at room temperature for 45 min with shaking. The wells were then washed 3 times with wash buffer. 100 ul of 3,3′,5,5′-Tetramethylbenzidine (TMB) were then added to each well and closely observe during development time. The reaction was stopped with 2N H2SO4 and absorbance was read at 450 nm.
TMB is a chromogenic substrate suitable for use in ELISA procedures, which utilize horseradish peroxidase conjugates. This substrate produces a soluble end product that is blue in color and can be read spectrophotometrically at 370 or 655 nm. The reaction maybe stopped with 2 M H2S04, resulting in a yellow solution that is read at 450 nm. Each tablet contains 1 mg of TMB substrate. To prepare TMB Substrate Solution, dissolve one 3,3′,5,5′-tetramethylbenzidine tablet in 1 ml of DMSO and add to 9 ml of 0.05 M Phosphate-Citrate Buffer, pH 5.0. Add 2 μl of fresh 30% hydrogen peroxide (Product No. H 1009) per 10 ml of substrate buffer solution, immediately prior to use.
For orientation: ELISA stands for enzyme-linked immunosorbent assay.

The target of the next experiment is α4β7 (Homo sapiens, UniProt P13612+P26010). Nature of the experiment: α4β7-MAdCAM Cell Adhesion Assay (RPMI 8866 human cells). As to conditions: Table 3-B, Potency (α4β7); range classes; read-out: α4β7 cell (Hu) IC50. Type of experiment: cell-based. The arrangement: host or cells: RPMI 8866 human B lymphoblastoid cells. Summed up:
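Washed RPMI 8866 cells (200,000/well) in DMEM with 0.1% BSA, 10 mM HEPES pH 7, 1 mM MnCl2 adhered to rh MAdCAM-1/Fc-coated wells with serially diluted peptides, 30-45 min at 37 °C. After three washes, bound cells quantified by MTT, A570, cell-free background subtracted for dose response.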

pIC50: −log10 of the molar value. Numbered stars: 1 amine (or outer) side, 2 acyl side, 3 side chain; on linkers, the order of the positions; unused ones are H or OH. Bridge positions count the residues as written; N and C are the ends. Square brackets hold non-standard residues; d marks the D form. Peptide text beside a SMILES is read from it. I, II: the chains in the order shown. Phe(3,4-Cl2) = N[C@@H](Cc1ccc(Cl)c(Cl)c1)C(=O)O; Phe(2,4-Cl2) = N[C@@H](Cc1ccc(Cl)cc1Cl)C(=O)O; 1Nal = N[C@@H](Cc1cccc2ccccc12)C(=O)O; 2Nal = N[C@@H](Cc1ccc2ccccc2c1)C(=O)O; d2Nal = N[C@H](Cc1ccc2ccccc2c1)C(=O)O; Diglycolyl = O=C(COCC(=O)[*:2])[*:1]; NMeR = CN[C@@H](CCCNC(=N)N)C(=O)O; hPhe = N[C@@H](CCc1ccccc1)C(=O)O; Tic = O=C(O)[C@@H]1Cc2ccccc2CN1; NMeK = CN[C@@H](CCCCN)C(=O)O; Pen = CC(C)(S)[C@H](N)C(=O)O; dNMeK = CN[C@H](CCCCN)C(=O)O

T1 sequence (P13612 34-977 limits assumed): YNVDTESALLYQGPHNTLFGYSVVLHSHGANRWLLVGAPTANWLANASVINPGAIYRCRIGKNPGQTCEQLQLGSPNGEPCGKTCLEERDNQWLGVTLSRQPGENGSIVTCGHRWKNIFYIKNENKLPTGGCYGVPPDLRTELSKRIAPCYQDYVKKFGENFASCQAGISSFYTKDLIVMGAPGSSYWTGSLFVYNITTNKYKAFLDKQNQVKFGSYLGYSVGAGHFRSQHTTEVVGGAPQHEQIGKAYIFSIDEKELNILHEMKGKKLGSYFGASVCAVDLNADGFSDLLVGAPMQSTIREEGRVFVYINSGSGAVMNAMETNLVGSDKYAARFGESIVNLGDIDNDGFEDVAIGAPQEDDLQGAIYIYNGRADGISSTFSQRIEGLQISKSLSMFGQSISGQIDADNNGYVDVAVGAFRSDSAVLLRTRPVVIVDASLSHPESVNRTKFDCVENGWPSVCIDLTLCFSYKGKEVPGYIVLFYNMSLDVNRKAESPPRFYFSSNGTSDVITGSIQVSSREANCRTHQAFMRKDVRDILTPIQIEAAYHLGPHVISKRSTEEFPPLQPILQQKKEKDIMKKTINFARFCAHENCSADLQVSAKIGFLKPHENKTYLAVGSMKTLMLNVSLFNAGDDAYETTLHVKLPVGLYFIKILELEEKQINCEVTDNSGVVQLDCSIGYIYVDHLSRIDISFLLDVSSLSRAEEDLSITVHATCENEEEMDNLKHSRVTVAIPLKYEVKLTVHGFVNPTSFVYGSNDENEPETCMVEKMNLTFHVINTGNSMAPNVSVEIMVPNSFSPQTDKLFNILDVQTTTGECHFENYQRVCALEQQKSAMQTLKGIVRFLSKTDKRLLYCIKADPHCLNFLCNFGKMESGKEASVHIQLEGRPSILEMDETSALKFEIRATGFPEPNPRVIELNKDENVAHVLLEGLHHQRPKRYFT
T1 sequence (P26010 20-723 limits assumed): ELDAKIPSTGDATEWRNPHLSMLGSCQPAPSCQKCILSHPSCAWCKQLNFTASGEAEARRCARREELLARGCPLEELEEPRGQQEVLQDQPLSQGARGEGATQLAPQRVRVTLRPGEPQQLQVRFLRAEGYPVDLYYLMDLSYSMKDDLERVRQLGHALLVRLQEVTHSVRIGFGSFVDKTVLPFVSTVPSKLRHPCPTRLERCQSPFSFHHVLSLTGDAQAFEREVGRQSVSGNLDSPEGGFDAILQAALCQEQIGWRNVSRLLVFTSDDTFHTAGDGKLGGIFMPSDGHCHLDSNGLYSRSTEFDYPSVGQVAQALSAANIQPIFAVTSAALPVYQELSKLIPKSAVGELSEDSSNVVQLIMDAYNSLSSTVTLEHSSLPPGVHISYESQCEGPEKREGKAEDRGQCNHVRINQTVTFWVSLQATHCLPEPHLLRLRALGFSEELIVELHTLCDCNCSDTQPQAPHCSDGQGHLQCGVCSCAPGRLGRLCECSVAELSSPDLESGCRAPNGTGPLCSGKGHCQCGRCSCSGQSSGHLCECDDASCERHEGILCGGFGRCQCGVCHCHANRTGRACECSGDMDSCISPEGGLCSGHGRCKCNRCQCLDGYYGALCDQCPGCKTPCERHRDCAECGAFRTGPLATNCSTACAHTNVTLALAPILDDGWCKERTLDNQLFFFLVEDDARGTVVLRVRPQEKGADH
Sequence of α4β7 (P13612 34-1032): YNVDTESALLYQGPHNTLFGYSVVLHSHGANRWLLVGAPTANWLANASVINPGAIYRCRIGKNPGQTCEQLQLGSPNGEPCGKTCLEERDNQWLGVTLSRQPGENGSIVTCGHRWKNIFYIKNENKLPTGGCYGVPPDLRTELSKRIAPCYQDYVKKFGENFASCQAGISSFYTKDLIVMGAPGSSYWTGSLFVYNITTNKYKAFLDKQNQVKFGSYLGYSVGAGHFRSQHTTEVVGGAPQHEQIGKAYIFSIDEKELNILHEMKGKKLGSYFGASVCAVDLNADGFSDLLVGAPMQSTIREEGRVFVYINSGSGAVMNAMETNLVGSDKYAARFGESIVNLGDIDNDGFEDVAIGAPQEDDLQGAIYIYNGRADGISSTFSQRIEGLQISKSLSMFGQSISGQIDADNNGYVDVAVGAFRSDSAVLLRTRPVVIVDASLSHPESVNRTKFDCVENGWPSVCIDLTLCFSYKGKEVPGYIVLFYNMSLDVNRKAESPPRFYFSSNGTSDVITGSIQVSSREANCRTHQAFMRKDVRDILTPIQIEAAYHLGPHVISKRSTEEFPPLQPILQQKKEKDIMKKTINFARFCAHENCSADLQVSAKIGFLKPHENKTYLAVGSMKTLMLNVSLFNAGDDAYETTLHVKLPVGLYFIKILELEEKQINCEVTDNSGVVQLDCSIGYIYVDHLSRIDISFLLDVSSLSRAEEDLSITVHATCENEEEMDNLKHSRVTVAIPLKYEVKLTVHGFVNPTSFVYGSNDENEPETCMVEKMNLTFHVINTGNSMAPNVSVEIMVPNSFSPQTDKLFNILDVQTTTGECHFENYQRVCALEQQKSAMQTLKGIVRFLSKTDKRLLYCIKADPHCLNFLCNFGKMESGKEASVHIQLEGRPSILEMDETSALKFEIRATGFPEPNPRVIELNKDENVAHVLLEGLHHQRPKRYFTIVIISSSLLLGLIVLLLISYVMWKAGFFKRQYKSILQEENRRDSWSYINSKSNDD
Sequence of α4β7 (P26010 20-798): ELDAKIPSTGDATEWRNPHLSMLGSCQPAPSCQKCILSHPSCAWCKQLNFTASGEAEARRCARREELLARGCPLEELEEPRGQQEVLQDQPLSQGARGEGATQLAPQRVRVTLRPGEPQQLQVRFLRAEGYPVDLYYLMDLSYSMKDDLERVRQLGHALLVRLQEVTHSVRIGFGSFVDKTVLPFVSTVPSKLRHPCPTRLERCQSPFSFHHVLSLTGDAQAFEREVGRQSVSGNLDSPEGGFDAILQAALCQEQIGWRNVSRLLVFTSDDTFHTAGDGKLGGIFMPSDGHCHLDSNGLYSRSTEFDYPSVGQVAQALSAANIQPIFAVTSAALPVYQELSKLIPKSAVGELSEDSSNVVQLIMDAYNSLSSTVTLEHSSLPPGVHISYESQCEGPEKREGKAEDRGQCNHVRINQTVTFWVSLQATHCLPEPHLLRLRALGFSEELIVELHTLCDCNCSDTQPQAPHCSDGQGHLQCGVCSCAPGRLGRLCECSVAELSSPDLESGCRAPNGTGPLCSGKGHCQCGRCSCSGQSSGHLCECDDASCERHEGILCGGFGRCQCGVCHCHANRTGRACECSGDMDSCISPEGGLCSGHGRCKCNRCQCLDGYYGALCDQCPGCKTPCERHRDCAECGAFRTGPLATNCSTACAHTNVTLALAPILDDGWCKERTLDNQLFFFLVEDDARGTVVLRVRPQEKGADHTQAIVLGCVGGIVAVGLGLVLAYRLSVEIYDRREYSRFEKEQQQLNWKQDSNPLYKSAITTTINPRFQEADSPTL

Usually pIC50 stands for −log10 of the IC50, conventionally taken in molar units. Take `CC(=O)N[C@@H]1C(=O)N(C)[C@@H](CCCNC(=N)N)C(=O)N[C@@H](CO)C(=O)N[C@@H](CC(=O)O)C(=O)N[C@@H]([C@@H](C)O)C(=O)N[C@@H](CC(C)C)C(=O)N[C@H](C(=O)N[C@@H](Cc2ccc3ccccc3c2)C(=O)N[C@@H](CCC(=O)O)C(=O)N(C)[C@@H](CCCCNC(=O)COCC(=O)NCCCC[C@@H](C(N)=O)N(C)C(=O)[C@H](CCC(=O)O)NC(=O)[C@H](Cc2ccc3ccccc3c2)NC(=O)[C@H]2NC(=O)[C@H](CC(C)C)NC(=O)[C@H]([C@@H](C)O)NC(=O)[C@H](CC(=O)O)NC(=O)[C@H](CO)NC(=O)[C@H](CCCNC(=N)N)N(C)C(=O)[C@@H](NC(C)=O)C(C)(C)SSC2(C)C)C(N)=O)C(C)(C)SSC1(C)C` [compound 138] (I: Ac-[Pen][NMeR]SDTL[Pen][2Nal]E[NMeK]-NH2 / II: Ac-[Pen][NMeR]SDTL[Pen][2Nal]E[NMeK]-NH2; disulfide I:1-I:7, II:1-II:7; linker I:10-II:10 via Diglycolyl): the pIC50 at rh integrin α4β7 and at α4β7 was 7.60 to 8.00 in each case.
As to `CC(=O)N[C@@H]1C(=O)N(C)[C@@H](CCCNC(=N)N)C(=O)N[C@@H](CO)C(=O)N[C@@H](CC(=O)O)C(=O)N[C@@H]([C@@H](C)O)C(=O)N[C@@H](CC(C)C)C(=O)N[C@H](C(=O)N[C@@H](Cc2ccc3ccccc3c2)C(=O)N[C@H](CCC(=O)O)C(=O)N[C@H](CCCCN)C(N)=O)C(C)(C)SSC1(C)C` [compound 9] (Ac-[Pen][NMeR]SDTL[Pen][2Nal][dE][dK]-NH2; disulfide 1-7), the pIC50 is 7.60 to 8.00 on rh integrin α4β7 and 6.30 to 7.00 at α4β7.
For `CC(=O)N[C@@H]1C(=O)N(C)[C@@H](CCCNC(=N)N)C(=O)N[C@@H](CO)C(=O)N[C@@H](CC(=O)O)C(=O)N[C@@H]([C@@H](C)O)C(=O)N[C@@H](CC(C)C)C(=O)N[C@H](C(=O)N2Cc3ccccc3C[C@H]2C(=O)N[C@H](CCC(=O)O)C(=O)N[C@H](CCCCN)C(N)=O)CSSC1(C)C` [compound 89] (Ac-[Pen][NMeR]SDTLC[Tic][dE][dK]-NH2; disulfide 1-7), the pIC50 at rh integrin α4β7 is 7.30 to 7.60.
Still for that read-out and setting: the value for `CC(=O)N[C@@H]1C(=O)N(C)[C@@H](CCCNC(=N)N)C(=O)N[C@@H](CO)C(=O)N[C@@H](CC(=O)O)C(=O)N[C@@H]([C@@H](C)O)C(=O)N[C@@H](CC(C)C)C(=O)N[C@H](C(=O)N[C@@H](CCc2ccccc2)C(=O)N[C@@H](CCC(=O)O)C(=O)N[C@H](CCCCN)C(N)=O)C(C)(C)SSC1(C)C` [compound 19] (Ac-[Pen][NMeR]SDTL[Pen][hPhe]E[dK]-NH2; disulfide 1-7) was 7.60 to 8.00.
As to `COC(=O)C[C@@H]1NC(=O)[C@H](CO)NC(=O)[C@H](CCCNC(=N)N)N(C)C(=O)[C@@H](NC(C)=O)C(C)(C)SSC(C)(C)[C@@H](C(=O)N[C@@H](Cc2c[nH]c3ccccc23)C(=O)N[C@@H](CCC(=O)O)C(=O)N[C@H](CCCCNC(=O)COCC(=O)NCCCC[C@@H](NC(=O)[C@H](CCC(=O)O)NC(=O)[C@H](Cc2c[nH]c3ccccc23)NC(=O)[C@H]2NC(=O)[C@H](CC(C)C)NC(=O)[C@H]([C@@H](C)O)NC(=O)[C@H](CC(=O)OC)NC(=O)[C@H](CO)NC(=O)[C@H](CCCNC(=N)N)N(C)C(=O)[C@@H](NC(C)=O)C(C)(C)SSC2(C)C)C(N)=O)C(N)=O)NC(=O)[C@H](CC(C)C)NC(=O)[C@H]([C@@H](C)O)NC1=O` [compound 73] (I: Ac-[Pen][NMeR]SD(OMe)TL[Pen]WE[dK]-NH2 / II: Ac-[Pen][NMeR]SD(OMe)TL[Pen]WE[dK]-NH2; disulfide I:1-I:7, II:1-II:7; linker I:10-II:10 via Diglycolyl), the pIC50 at rh integrin α4β7 and on α4β7 was above 8.00 each time.
On to `CC(=O)N[C@@H]1C(=O)N(C)[C@@H](CCCNC(=N)N)C(=O)N[C@@H](CO)C(=O)N[C@@H](CC(=O)O)C(=O)N[C@@H]([C@@H](C)O)C(=O)N[C@@H](CC(C)C)C(=O)N[C@H](C(=O)N[C@@H](CCc2ccccc2)C(=O)N[C@H](CCC(=O)O)C(=O)N[C@H](CCCCN)C(N)=O)C(C)(C)SSC1(C)C` [compound 14] (Ac-[Pen][NMeR]SDTL[Pen][hPhe][dE][dK]-NH2; disulfide 1-7), for which the pIC50 on rh integrin α4β7 was 7.30 to 7.60.
The same measure, in the same setting: the result for `CC(=O)N[C@@H]1C(=O)N(C)[C@@H](CCCNC(=N)N)C(=O)N[C@@H](CO)C(=O)N[C@@H](CC(=O)O)C(=O)N[C@@H]([C@@H](C)O)C(=O)N[C@@H](CC(C)C)C(=O)N[C@H](C(=O)N[C@@H](Cc2ccc(Cl)c(Cl)c2)C(=O)N[C@@H](CCC(=O)O)C(=O)N[C@H](CCCCN)C(N)=O)C(C)(C)SSC1(C)C` [compound 17] (Ac-[Pen][NMeR]SDTL[Pen][Phe(3,4-Cl2)]E[dK]-NH2; disulfide 1-7) reads 7.60 to 8.00.
Consider `CC(=O)N[C@@H]1C(=O)N(C)[C@@H](CCCNC(=N)N)C(=O)N[C@@H](CO)C(=O)N[C@@H](CC(=O)O)C(=O)N[C@@H]([C@@H](C)O)C(=O)N[C@@H](CC(C)C)C(=O)N[C@H](C(=O)N[C@@H](CCc2ccccc2)C(=O)N[C@H](CCC(=O)O)C(=O)N[C@H](CCCCNC(=O)COCC(=O)NCCCC[C@@H](NC(=O)[C@@H](CCC(=O)O)NC(=O)[C@H](CCc2ccccc2)NC(=O)[C@H]2NC(=O)[C@H](CC(C)C)NC(=O)[C@H]([C@@H](C)O)NC(=O)[C@H](CC(=O)O)NC(=O)[C@H](CO)NC(=O)[C@H](CCCNC(=N)N)N(C)C(=O)[C@@H](NC(C)=O)C(C)(C)SSC2(C)C)C(N)=O)C(N)=O)C(C)(C)SSC1(C)C` [compound 40] (I: Ac-[Pen][NMeR]SDTL[Pen][hPhe][dE][dK]-NH2 / II: Ac-[Pen][NMeR]SDTL[Pen][hPhe][dE][dK]-NH2; disulfide I:1-I:7, II:1-II:7; linker I:10-II:10 via Diglycolyl), for which the pIC50 at rh integrin α4β7 is above 8.00; at α4β7 it was 6.30 to 7.00.
As for `CC(=O)N[C@@H]1C(=O)N(C)[C@@H](CCCNC(=N)N)C(=O)N[C@@H](CO)C(=O)N[C@@H](CC(=O)O)C(=O)N[C@@H]([C@@H](C)O)C(=O)N[C@@H](CC(C)C)C(=O)N[C@H](C(=O)N[C@H](Cc2ccc3ccccc3c2)C(=O)N[C@@H](CCC(=O)O)C(=O)N[C@H](CCCCN)C(N)=O)C(C)(C)SSC1(C)C` [compound 11] (Ac-[Pen][NMeR]SDTL[Pen][d2Nal]E[dK]-NH2; disulfide 1-7), the pIC50 on rh integrin α4β7 was 7.30 to 7.60.
The same measure, in the same setting: the value for `CC(=O)N[C@@H]1C(=O)N(C)[C@@H](CCCNC(=N)N)C(=O)N[C@@H](CO)C(=O)N[C@@H](CC(=O)O)C(=O)N[C@@H]([C@@H](C)O)C(=O)N[C@@H](CC(C)C)C(=O)N[C@H](C(=O)N[C@@H](Cc2cccc3ccccc23)C(=O)N[C@H](CCC(=O)O)C(=O)N(C)[C@H](CCCCN)C(N)=O)C(C)(C)SSC1(C)C` [compound 12] (Ac-[Pen][NMeR]SDTL[Pen][1Nal][dE][dNMeK]-NH2; disulfide 1-7) was 7.30 to 7.60.
In the case of `CC(=O)N[C@@H]1C(=O)N(C)[C@@H](CCCNC(=N)N)C(=O)N[C@@H](CO)C(=O)N[C@@H](CC(=O)O)C(=O)N[C@@H]([C@@H](C)O)C(=O)N[C@@H](CC(C)C)C(=O)N[C@H](C(=O)N[C@@H](Cc2ccc3ccccc3c2)C(=O)N[C@H](CCC(=O)O)C(=O)N(C)[C@H](CCCCN)C(N)=O)C(C)(C)SSC1(C)C` [compound 13] (Ac-[Pen][NMeR]SDTL[Pen][2Nal][dE][dNMeK]-NH2; disulfide 1-7), the pIC50 at rh integrin α4β7 is 7.60 to 8.00; at α4β7 it was 6.30 to 7.00.
`CC(=O)N[C@@H]1C(=O)N(C)[C@@H](CCCNC(=N)N)C(=O)N[C@@H](CO)C(=O)N[C@@H](CC(=O)O)C(=O)N[C@@H]([C@@H](C)O)C(=O)N[C@@H](CC(C)C)C(=O)N[C@H](C(=O)N[C@@H](Cc2ccc(Cl)cc2Cl)C(=O)N[C@@H](CCC(=O)O)C(=O)N[C@H](CCCCN)C(N)=O)C(C)(C)SSC1(C)C` [compound 16] (Ac-[Pen][NMeR]SDTL[Pen][Phe(2,4-Cl2)]E[dK]-NH2; disulfide 1-7): the pIC50 on rh integrin α4β7 is 7.60 to 8.00.

The values are drawn from patent US9809623B2, “α4β7 peptide monomer and dimer antagonists” (Protagonist Therapeutics, Inc., priority 2014, dated 2017).
